≈ marks a conversion by molar mass, not a printed value.
Key:
pro MMP-9 protein = experiment: Inhibitory activity against proMMP-9 protein production (TNF α-stimulated mouse peritoneal exudate cells, ELISA); format: cell-based, C57BL/6J mice; settings: relative activity when the value of Comparative Agent 1 (IC50 = 10.04 ± 4.11 μM) is 10, on the increase of pro MMP-9 by TNF α 25 ng/ml, 24 hours, read-out: IC50 (μM)*
Method in brief: (§1)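 Peritoneal exudate cells came from male C57BL/6J mice 3 days after i.p. zymosan A; cultured cells got compound (0.02–20 μM final) 1 h before TNFα (25 ng/ml) and supernatant pro MMP-9 was measured by ELISA after 24 h for IC50 against the TNFα-induced increase. MIC was measured against S. aureus ATCC29213.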

[1] = tested on: Staphylococcus aureus ATCC29213; experiment: Minimal inhibitory concentration (MIC); format: cell-based
Method in brief: as §1

MMP-9 production = settings: background art, Non-Patent Document 3; read-out: 50% inhibitory concentration (IC50) value, MMP-9 production; cited from earlier work

| SMILES | IC50 (pro MMP-9 protein) [µM] | MIC [1] [µg/mL] | IC50 (MMP-9 production) [µM] |
| --- | --- | --- | --- |
| CC[C@H]1OC(=O)[C@H](C)[C@@H](OC(C)=O)[C@H](C)[C@@H](O[C@@H]2O[C@H](C)C[C@@H](N3CCOCC3)[C@@H]2N(C)C)[C@@](C)(OC)C[C@@H](C)C(=O)[C@H](C)[C@@H](O)[C@]1(C)O [Example 203, 3-O-acetyl-5-O— (3′-dedimethylamino-2′-deoxy-2′-dimethylamino-3′-(4-morpholino)desosaminyl)-6-O-methylerythronolide A] | 5.03 | > 128 |  |
| CC[C@H]1OC(=O)[C@H](C)[C@@H](O[C@H]2C[C@@](C)(OC)[C@@H](OC(C)=O)[C@H](C)O2)[C@H](C)[C@@H](O[C@@H]2O[C@H](C)C[C@@H](N3CCOCC3)[C@@H]2N(C)C)[C@@](C)(OC)C[C@@H](C)C(=O)[C@H](C)[C@@H](O)[C@H]1C [Example 209, 4″-O-acetyl-3′-dedimethylamino-2′-deoxy-2′-dimethylamino-3′-(4-morpholino)-6-O-methylerythromycin B] | 3.47 | > 128 |  |
| CC[C@H]1OC(=O)[C@H](C)C(=O)[C@H](C)[C@@H](O[C@@H]2O[C@H](C)C[C@@H](N3CCOCC3)[C@@H]2N(C)C)[C@@](C)(OC)C[C@@H](C)C(=O)[C@H](C)[C@H]2N(CCCCn3cnc(-c4cccnc4)c3)C(=O)O[C@]12C [Example 211, 3,11-dideoxy-5-O-(3′-dedimethylamino-2′-deoxy-2′-dimethylamino-3′-(4-morpholino)desosaminyl)-11-{4-[4-(pyridin-3-yl)-1H-imidazol-1-yl]butyl}-amino-3-oxo-6-O-methylerythronolide A 11,12-cyclic carbamate] | 2.58 | > 128 |  |
| CC[C@H]1OC(=O)[C@H](C)[C@@H](O[C@H]2C[C@@](C)(OC)[C@@H](OC(C)=O)[C@H](C)O2)[C@H](C)[C@@H](O[C@@H]2O[C@H](C)C[C@@H](N3CCOCC3)[C@@H]2N(C)C)[C@@](C)(OC(C)=O)C[C@@H](C)CN(C)[C@H](C)[C@@H](OC(C)=O)[C@]1(C)O [Example 212, 6,11,4″-O-triacetyl-3′-dedimethylamino-2′-deoxy-2′-dimethylamino-3′-(4-morpholino)-9-deoxo-9a-aza-9a-methyl-9a-homoerythromycin A] | 1.78 | > 128 |  |
| CC[C@H]1OC(=O)[C@H](C)[C@@H](O[C@H]2C[C@@](C)(OC)[C@@H](O)[C@H](C)O2)[C@H](C)[C@@H](O[C@@H]2O[C@H](C)C[C@@H](N3CCOCC3)[C@@H]2N(C)C)[C@@](C)(O)C[C@@H](C)CN(C)[C@H](C)[C@@H](O)[C@]1(C)O [Example 213, 3′-dedimethylamino-2′-deoxy-2′-dimethylamino-3′-(4-morpholino)-9-deoxo-9a-aza-9a-methyl-9a-homoerythromycin A] | 0.77 | > 128 |  |
| CC[C@H]1OC(=O)[C@H](C)[C@@H](O[C@H]2C[C@@](C)(OC)[C@@H](OC(C)=O)[C@H](C)O2)[C@H](C)[C@@H](O[C@@H]2O[C@H](C)C[C@H](N(C)CCN(C)C)[C@H]2O)[C@@](C)(OC)C[C@@H](C)C(=O)[C@H](C)[C@@H](O)[C@]1(C)O [Example 214, 4″-O-acetyl-3′-N-demethyl-3′-N-(2-dimethylaminoethyl)-6-methylerythromycin A] | 2.73 | > 128 |  |
| CC[C@H]1OC(=O)[C@H](C)[C@@H](O[C@H]2C[C@@](C)(OC)[C@@H](O)[C@H](C)O2)[C@H](C)[C@@H](O[C@@H]2O[C@H](C)C[C@H](N(C)C)[C@H]2O)[C@](C)(O)C[C@@H](C)/C(=N\OCOCCOC)[C@H](C)[C@@H](O)[C@]1(C)O [roxithromycin] |  |  | ≥ 10 |

Now from value to compound, other results behind:

| IC50 (pro MMP-9 protein) [µM] | MIC [1] [µg/mL] | SMILES | IC50 (MMP-9 production) [µM] |
| --- | --- | --- | --- |
| 3.6 | > 128 | CC[C@H]1OC(=O)[C@H](C)[C@@H](O[C@H]2C[C@@](C)(OC)[C@@H](O)[C@H](C)O2)[C@H](C)[C@@H](O[C@@H]2O[C@H](C)C[C@@H](N(C)CCCO)[C@@H]2N(C)C)[C@@](C)(OC)C[C@@H](C)C(=O)[C@H](C)[C@@H](O)[C@]1(C)O [Example 199, 3′-N-demethyl-2′-deoxy-2′-dimethylamino-3′-N-(3-hydroxypropyl)-6-O-methylerythromycin A] |  |
| 4.45 | > 128 | CC[C@H]1OC(=O)[C@H](C)[C@@H](O[C@H]2C[C@@](C)(OC)[C@@H](O)[C@H](C)O2)[C@H](C)[C@@H](O[C@@H]2O[C@H](C)C[C@@H](N3CC[C@H](O)C3)[C@@H]2N(C)C)[C@@](C)(OC)C[C@@H](C)C(=O)[C@H](C)[C@@H](O)[C@]1(C)O [Example 201, 3′-dedimethylamino-2′-deoxy-2′-dimethylamino-3′-((S)-3-hydroxypyrrolidin-1-yl)-6-O-methylerythromycin A] |  |
| 4.63 | 128 (≈ 160 µM) | CC[C@H]1OC(=O)[C@H](C)[C@@H](O[C@H]2C[C@@](C)(OC)[C@@H](O)[C@H](C)O2)[C@H](C)[C@@H](O[C@@H]2O[C@H](C)C[C@@H](N3CCOCC3)[C@@H]2N(C)C)[C@@](C)(OC)C[C@@H](C)C(=O)[C@H](C)[C@@H](O)[C@H]1C [Example 210, 3′-dedimethylamino-2′-deoxy-2′-dimethylamino-3′-(4-morpholino)-6-O-methylerythromycin B] |  |
| 1.21 | > 128 | CC[C@H]1OC(=O)[C@H](C)[C@@H](O[C@H]2C[C@@](C)(OC)[C@@H](OC(C)=O)[C@H](C)O2)[C@H](C)[C@@H](O[C@@H]2O[C@H](C)C[C@@H](N3CCOCC3)[C@@H]2N(C)CCN(C)C)[C@@](C)(OC)C[C@@H](C)C(=O)[C@H](C)[C@@H](O)[C@]1(C)O [Example 215] |  |
| 2.55 | > 128 | CC[C@H]1OC(=O)[C@H](C)[C@@H](O[C@H]2C[C@@](C)(OC)[C@@H](O)[C@H](C)O2)[C@H](C)[C@@H](O[C@@H]2O[C@H](C)C[C@@H](N3CCOCC3)[C@@H]2N(C)CCN(C)C)[C@@](C)(OC)C[C@@H](C)C(=O)[C@H](C)[C@@H](O)[C@]1(C)O [Example 216] |  |

Reference: US8124744B2, “Macrolide derivatives” (Taisho Pharmaceutical Co., Ltd., priority 2006, dated 2012)
